Experiments:
Format in all cases: in vivo
[1] = tested on: barnyardgrass (Echinochloa crus-galli); assay: Test A preemergence; settings: Echinochloa crus-galli, pre-emergence, 240 h, 0 to 100 scale where 0 is no effect and 100 is complete control, read-out: Barnyardgrass plant response rating; for pest or weed control at 31 g/ha: 31 g ai/ha, Preemergence; for pest or weed control at 125 g/ha: 125 g ai/ha, preemergence, approx. 10 d
Procedure, shortened: (§1)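 Compounds were formulated in a non-phytotoxic solvent mixture with surfactant and applied as a preemergence directed soil spray after seeding, or sprayed postemergence over plants 2 to 10 cm tall at the one- to two-leaf stage. Evaluation after about 10 d compared treated with untreated controls, using a scale from 0 (no effect) to 100 (complete control).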

[2] = tested on: ryegrass, Italian (Italian ryegrass, Lolium multiflorum); assay: Test A preemergence; settings: Lolium multiflorum, pre-emergence, 240 h, 0 to 100 scale where 0 is no effect and 100 is complete control, read-out: Ryegrass, Italian plant response rating; for pest or weed control at 31 g/ha: 31 g ai/ha, Preemergence; for pest or weed control at 125 g/ha: 125 g ai/ha, preemergence, approx. 10 d
Procedure, shortened: as §1

Kochia (Kochia scoparia) [3] = assay: Test A preemergence; settings: Bassia scoparia, pre-emergence, 240 h, 0 to 100 scale where 0 is no effect and 100 is complete control, read-out: Kochia plant response rating; for pest or weed control at 31 g/ha: 31 g ai/ha, Preemergence; for pest or weed control at 125 g/ha: 125 g ai/ha, preemergence, approx. 10 d
Procedure, shortened: as §1

[4] = tested on: pigweed (Amaranthus retroflexus); assay: Test A preemergence; settings: Amaranthus retroflexus, pre-emergence, 240 h, 0 to 100 scale where 0 is no effect and 100 is complete control, read-out: Pigweed plant response rating; for pest or weed control at 31 g/ha: 31 g ai/ha, Preemergence; for pest or weed control at 125 g/ha: 125 g ai/ha, preemergence, approx. 10 d
[5] = tested on: ragweed (common ragweed, Ambrosia elatior); assay: Test A preemergence; settings: Ambrosia artemisiifolia, pre-emergence, 240 h, 0 to 100 scale where 0 is no effect and 100 is complete control, read-out: Ragweed plant response rating; for pest or weed control at 31 g/ha: 31 g ai/ha, Preemergence; for pest or weed control at 125 g/ha: 125 g ai/ha, preemergence, approx. 10 d
Procedure, shortened: as §1

[6] = tested on: giant foxtail (Setaria faberii); assay: Test A preemergence; settings: Setaria faberi, pre-emergence, 240 h, 0 to 100 scale where 0 is no effect and 100 is complete control, read-out: Foxtail, Giant plant response rating; for pest or weed control at 31 g/ha: 31 g ai/ha, Preemergence; for pest or weed control at 125 g/ha: 125 g ai/ha, preemergence, approx. 10 d
Procedure, shortened: as §1

[7] = tested on: barnyardgrass (Echinochloa crus-galli); assay: Test B flooded paddy test; settings: Echinochloa crus-galli, 250 g ai/ha, Flood; 0 to 100 scale where 0 is no effect and 100 is complete control; read-out: Barnyardgrass plant response rating
Procedure, shortened: (§2)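 Evaluation by eye, against controls, occurred 13–15 d post-treatment in a greenhouse, using a 0 (no effect) to 100 (complete control) scale. Application was into the paddy water, 3 cm deep over the soil, on 2-leaf plants.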

[8] = tested on: sedge, umbrella (small-flower umbrella sedge, Cyperus difformis); assay: Test B flooded paddy test; settings: Cyperus difformis, 250 g ai/ha, Flood; 0 to 100 scale where 0 is no effect and 100 is complete control; read-out: Sedge, Umbrella plant response rating
Procedure, shortened: as §2

rice (Oryra sativa) = assay: Test B flooded paddy test; settings: Oryza sativa, 250 g ai/ha, Flood; 0 to 100 scale where 0 is no effect and 100 is complete control; read-out: Rice plant response rating
Procedure, shortened: as §2

[9] = tested on: ducksalad (Heteranthera limosa); assay: Test B flooded paddy test; settings: Heteranthera limosa, 250 g ai/ha, Flood; 0 to 100 scale where 0 is no effect and 100 is complete control; read-out: Ducksalad plant response rating
Procedure, shortened: as §2

[10] = tested on: barnyardgrass (Echinochloa crus-galli); assay: Test A postemergence; settings: Echinochloa crus-galli, post-emergence, 240 h; for pest or weed control at 125 g/ha: 125 g ai/ha, postemergence, visual injury on 0 to 100 scale (0 no effect, 100 complete control), approx. 10 d, read-out: Barnyardgrass plant response rating; for pest or weed control at 31 g/ha: Postemergence, 31 g ai/ha, visual injury after approx. 10 d, 0 to 100 scale, 0 no effect, 100 complete control, read-out: Plant response rating, Barnyardgrass
Procedure, shortened: as §1

[11] = tested on: ryegrass, Italian (Italian ryegrass, Lolium multiflorum); assay: Test A postemergence; settings: Lolium multiflorum, post-emergence, 240 h; for pest or weed control at 125 g/ha: 125 g ai/ha, postemergence, visual injury on 0 to 100 scale (0 no effect, 100 complete control), approx. 10 d, read-out: Ryegrass, Italian plant response rating; for pest or weed control at 31 g/ha: Postemergence, 31 g ai/ha, visual injury after approx. 10 d, 0 to 100 scale, 0 no effect, 100 complete control, read-out: Plant response rating, Ryegrass, Italian
Procedure, shortened: as §1

Kochia (Kochia scoparia) [12] = assay: Test A postemergence; settings: Bassia scoparia, post-emergence, 240 h; for pest or weed control at 125 g/ha: 125 g ai/ha, postemergence, visual injury on 0 to 100 scale (0 no effect, 100 complete control), approx. 10 d, read-out: Kochia plant response rating; for pest or weed control at 31 g/ha: Postemergence, 31 g ai/ha, visual injury after approx. 10 d, 0 to 100 scale, 0 no effect, 100 complete control, read-out: Plant response rating, Kochia
Procedure, shortened: as §1

[13] = tested on: pigweed (Amaranthus retroflexus); assay: Test A postemergence; settings: Amaranthus retroflexus, post-emergence, 240 h; for pest or weed control at 125 g/ha: 125 g ai/ha, postemergence, visual injury on 0 to 100 scale (0 no effect, 100 complete control), approx. 10 d, read-out: Pigweed plant response rating; for pest or weed control at 31 g/ha: Postemergence, 31 g ai/ha, visual injury after approx. 10 d, 0 to 100 scale, 0 no effect, 100 complete control, read-out: Plant response rating, Pigweed
Procedure, shortened: as §1

[14] = tested on: ragweed (common ragweed, Ambrosia elatior); assay: Test A postemergence; settings: Ambrosia artemisiifolia, post-emergence, 240 h; for pest or weed control at 125 g/ha: 125 g ai/ha, postemergence, visual injury on 0 to 100 scale (0 no effect, 100 complete control), approx. 10 d, read-out: Ragweed plant response rating; for pest or weed control at 31 g/ha: Postemergence, 31 g ai/ha, visual injury after approx. 10 d, 0 to 100 scale, 0 no effect, 100 complete control, read-out: Plant response rating, Ragweed
Procedure, shortened: as §1

[15] = tested on: Galium (catchweed bedstraw, Galium aparine); assay: Test A postemergence; settings: Galium, post-emergence, 240 h; for pest or weed control at 125 g/ha: 125 g ai/ha, postemergence, visual injury on 0 to 100 scale (0 no effect, 100 complete control), approx. 10 d, read-out: Galium plant response rating; for pest or weed control at 31 g/ha: Postemergence, 31 g ai/ha, visual injury after approx. 10 d, 0 to 100 scale, 0 no effect, 100 complete control, read-out: Plant response rating, Galium
Procedure, shortened: as §1

[16] = tested on: giant foxtail (Setaria faberii); assay: Test A postemergence; settings: Setaria faberi, post-emergence, 240 h; for pest or weed control at 125 g/ha: 125 g ai/ha, postemergence, visual injury on 0 to 100 scale (0 no effect, 100 complete control), approx. 10 d, read-out: Foxtail, Giant plant response rating; for pest or weed control at 31 g/ha: Postemergence, 31 g ai/ha, visual injury after approx. 10 d, 0 to 100 scale, 0 no effect, 100 complete control, read-out: Plant response rating, Foxtail, Giant
Procedure, shortened: as §1

[17] = tested on: blackgrass (Alopecurus myosuroides); assay: Test A postemergence; settings: Alopecurus myosuroides, post-emergence, 240 h; for pest or weed control at 125 g/ha: 125 g ai/ha, postemergence, visual injury on 0 to 100 scale (0 no effect, 100 complete control), approx. 10 d, read-out: Blackgrass plant response rating; for pest or weed control at 31 g/ha: Postemergence, 31 g ai/ha, visual injury after approx. 10 d, 0 to 100 scale, 0 no effect, 100 complete control, read-out: Plant response rating, Blackgrass
Procedure, shortened: as §1

corn (Zea mays) = assay: Test A postemergence; settings: Zea mays, post-emergence, 240 h; for plant injury at 125 g/ha: 125 g ai/ha, postemergence, visual injury on 0 to 100 scale (0 no effect, 100 complete control), approx. 10 d, read-out: Corn plant response rating; for Corn plant response rating (crop injury, 0 = no effect, 100 = complete kill) at 31 g/ha: Postemergence, 31 g ai/ha, visual injury after approx. 10 d, 0 to 100 scale, 100 complete control
Procedure, shortened: as §1

[18] = tested on: wheat (Triticum aestivum); assay: Test A postemergence; settings: Triticum aestivum, post-emergence, 240 h; for plant injury at 125 g/ha: 125 g ai/ha, postemergence, visual injury on 0 to 100 scale (0 no effect, 100 complete control), approx. 10 d, read-out: Wheat plant response rating; for plant injury at 31 g/ha: Postemergence, 31 g ai/ha, visual injury after approx. 10 d, 0 to 100 scale, 0 no effect, 100 complete control, read-out: Plant response rating, Wheat
Procedure, shortened: as §1

## O=C1NC[C@H](c2ccc(C(F)(F)F)cn2)[C@H]1C(=O)Nc1ccc(F)c(F)c1F [Compound 1105]
[1]
  pest or weed control at 31 g/ha: 30%
  pest or weed control at 125 g/ha: 60%
[2]
  pest or weed control at 31 g/ha: 0%
  pest or weed control at 125 g/ha: 0%
Kochia (Kochia scoparia) [3]
  pest or weed control at 31 g/ha: 0%
  pest or weed control at 125 g/ha: 70%
[4]
  pest or weed control at 31 g/ha: 0%
  pest or weed control at 125 g/ha: 0%
[5]
  pest or weed control at 31 g/ha: 0%
  pest or weed control at 125 g/ha: 20%
[6]
  pest or weed control at 31 g/ha: 20%
  pest or weed control at 125 g/ha: 90%
[7]
  pest or weed control at 250 g/ha: 50%
[8]
  pest or weed control at 250 g/ha: 0%
Rice (Oryra sativa)
  pest or weed control at 250 g/ha: 20%
[9]
  pest or weed control at 250 g/ha: 100%
[10]
  pest or weed control at 125 g/ha: 30%
  pest or weed control at 31 g/ha: 0%
[11]
  pest or weed control at 125 g/ha: 0%
  pest or weed control at 31 g/ha: 0%
Kochia (Kochia scoparia) [12]
  pest or weed control at 125 g/ha: 20%
  pest or weed control at 31 g/ha: 0%
[13]
  pest or weed control at 125 g/ha: 0%
  pest or weed control at 31 g/ha: 0%
[14]
  pest or weed control at 125 g/ha: 0%
  pest or weed control at 31 g/ha: 0%
[15]
  pest or weed control at 125 g/ha: 40%
  pest or weed control at 31 g/ha: 30%
[16]
  pest or weed control at 125 g/ha: 50%
  pest or weed control at 31 g/ha: 0%
[17]
  pest or weed control at 125 g/ha: 0%
  pest or weed control at 31 g/ha: 0%
Corn (Zea mays)
  plant injury at 125 g/ha: 0%
  Corn plant response rating (crop injury, 0 = no effect, 100 = complete kill) at 31 g/ha: 0%
[18]
  plant injury at 125 g/ha: 0%
  plant injury at 31 g/ha: 0%

## CN1C[C@H](c2ccc(C(F)(F)F)nc2)[C@@](C)(C(=O)Nc2ccc(F)c(F)c2F)C1=O [Compound 1110]
[1]
  pest or weed control at 31 g/ha: 90%
  pest or weed control at 125 g/ha: 100%
[2]
  pest or weed control at 31 g/ha: 30%
  pest or weed control at 125 g/ha: 50%
Kochia (Kochia scoparia) [3]
  pest or weed control at 31 g/ha: 0%
  pest or weed control at 125 g/ha: 70%
[4]
  pest or weed control at 31 g/ha: 60%
  pest or weed control at 125 g/ha: 90%
[5]
  pest or weed control at 31 g/ha: 0%
  pest or weed control at 125 g/ha: 40%
[6]
  pest or weed control at 31 g/ha: 90%
  pest or weed control at 125 g/ha: 100%
[7]
  pest or weed control at 250 g/ha: 90%
[8]
  pest or weed control at 250 g/ha: 0%
Rice (Oryra sativa)
  pest or weed control at 250 g/ha: 50%
[9]
  pest or weed control at 250 g/ha: 100%
[10]
  pest or weed control at 125 g/ha: 90%
  pest or weed control at 31 g/ha: 80%
[11]
  pest or weed control at 125 g/ha: 60%
  pest or weed control at 31 g/ha: 40%
Kochia (Kochia scoparia) [12]
  pest or weed control at 125 g/ha: 70%
  pest or weed control at 31 g/ha: 30%
[13]
  pest or weed control at 125 g/ha: 50%
  pest or weed control at 31 g/ha: 20%
[14]
  pest or weed control at 125 g/ha: 30%
  pest or weed control at 31 g/ha: 0%
[15]
  pest or weed control at 125 g/ha: 50%
  pest or weed control at 31 g/ha: 20%
[16]
  pest or weed control at 125 g/ha: 90%
  pest or weed control at 31 g/ha: 60%
[17]
  pest or weed control at 125 g/ha: 60%
  pest or weed control at 31 g/ha: 0%
Corn (Zea mays)
  plant injury at 125 g/ha: 80%
  Corn plant response rating (crop injury, 0 = no effect, 100 = complete kill) at 31 g/ha: 30%
[18]
  plant injury at 125 g/ha: 70%
  plant injury at 31 g/ha: 30%

— patent US12077503B2, “Substituted cyclic amides and their use as herbicides” (FMC CORPORATION, priority 2015, dated 2024)
